Data from patent US9326973B2, “Hepatitis C virus inhibitors” (priority 2012, dated 2016).

Tested on: HCV replicon, genotype-1a variant with glutamine 30 changed to glutamate in the NS5A protein
Test: microbe, parasite or virus in culture
Type: cell-based, HCV genotype 1a
Conditions: HCV replicon genotype 1a Q30E (Q→E) variant; test compound titrated with an NS5A-targeting compound (BMS-790052 fixed at 200 nM); ranking of synergist activity
How it was run: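 Synergy was assessed by combining several fixed amounts of an NS5A-targeting compound with a titration of the second compound of interest.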

Row | SMILES | Fold-Synergistic 1a (Q30E) [fold]
1 | O=C(CCn1ccc2ccccc21)N1CCC[C@H]1c1ncc(-c2ccc(-c3ccc(-c4cnc([C@@H]5CCCN5C(=O)CCn5ccc6ccccc65)[nH]4)cc3)cc2)[nH]1 [Compound S-151] | >10
2 | CC1([C@H](NC(=O)C(=O)N2CCCCCC2)c2nc(-c3ccc(-c4ccc(-c5c[nH]c([C@@H](NC(=O)C(=O)N6CCCCCC6)C6(C)CC6)n5)cc4)cc3)c[nH]2)CC1 [Compound W-57] | >100
3 | CC(C)(C)[C@H](NC(=O)[C@H](O)C1CCCCC1)c1nc(-c2ccc(-c3ccc(-c4c[nH]c([C@@H](NC(=O)[C@H](O)C5CCCCC5)C(C)(C)C)n4)cc3)cc2)c[nH]1 [Compound L-74] | >100
4 | CC(C)(C(=O)N[C@H](c1nc(-c2ccc(-c3ccc(-c4c[nH]c([C@@H](NC(=O)C(C)(C)C(=O)N5CC6CC6C5)C(C)(C)C)n4)cc3)cc2)c[nH]1)C(C)(C)C)C(=O)N1CC2CC2C1 (stereo partly shown) [Compound W-153] | >100
5 | CC1([C@H](NC(=O)[C@H]2C[C@@H]3CC(F)(F)C[C@@H]3C2)c2nc(-c3ccc(-c4ccc(-c5c[nH]c([C@@H](NC(=O)[C@H]6C[C@@H]7CC(F)(F)C[C@@H]7C6)C6(C)CC6)n5)cc4)cc3)c[nH]2)CC1 [Compound P-140] | >100
6 | CC(C)(C)OC(=O)C[C@H](C(=O)N[C@H](c1nc(-c2ccc(-c3ccc(-c4c[nH]c([C@@H](NC(=O)[C@@H](CC(=O)OC(C)(C)C)C5CCCC5)C(C)(C)C)n4)cc3)cc2)c[nH]1)C(C)(C)C)C1CCCC1 [Compound S-272] | >100
7 | O=C(c1csc(-c2ccccc2)n1)N1CCC[C@H]1c1ncc(-c2ccc(-c3ccc(-c4cnc([C@@H]5CCCN5C(=O)c5csc(-c6ccccc6)n5)[nH]4)cc3)cc2)[nH]1 [Compound S-138] | >100
8 | CC1(C(=O)N[C@H](c2nc(-c3ccc(-c4ccc(-c5c[nH]c([C@@H](NC(=O)C6(C)CC7C=CC6C7)C(C)(C)C)n5)cc4)cc3)c[nH]2)C(C)(C)C)CC2C=CC1C2 (stereo partly shown) [Compound S-298] | >100
9 | CC(C)(C)[C@H](NC(=O)[C@@H]1CCC(=O)N1)c1nc(-c2ccc(-c3ccc(-c4c[nH]c([C@@H](NC(=O)[C@@H]5CCC(=O)N5)C(C)(C)C)n4)cc3)cc2)c[nH]1 [Compound L-10] | >10
10 | O=C(CC1CC1)N1CCC[C@H]1c1ncc(-c2ccc(-c3ccc(-c4cnc([C@@H]5CCCN5C(=O)CC5CC5)[nH]4)cc3)cc2)[nH]1 [Compound S-110] | <10
11 | O=C(c1cccc2cnccc12)N1CCC[C@H]1c1ncc(-c2ccc(-c3ccc(-c4cnc([C@@H]5CCCN5C(=O)c5cccc6cnccc56)[nH]4)cc3)cc2)[nH]1 [Compound S-203] | <10
12 | CC(C)(C)OC(=O)N1CCC[C@]1(C)C(=O)N[C@H](c1nc(-c2ccc(-c3ccc(-c4c[nH]c([C@@H](NC(=O)[C@@]5(C)CCCN5C(=O)OC(C)(C)C)C(C)(C)C)n4)cc3)cc2)c[nH]1)C(C)(C)C [Compound L-15] | >100
13 | Cc1cc(-c2ccc(-c3c[nH]c([C@@H](NC(=O)C4(C)CCCC4)C(C)C)n3)cc2)ccc1-c1c[nH]c([C@@H](NC(=O)C2(C)CCCC2)C(C)C)n1 [Compound N-80] | >100
14 | CC(C)[C@H](NC(=O)C1(N2CCC(F)(F)CC2)COC1)c1nc(-c2ccc(-c3ccc(-c4c[nH]c([C@@H](NC(=O)C5(N6CCC(F)(F)CC6)COC5)C(C)C)n4)cc3)cc2)c[nH]1 [Compound W-64] | >100
15 | CC(C)(C)[C@H](NC(=O)C(F)(F)c1ccccc1)c1nc(-c2ccc(-c3ccc(-c4c[nH]c([C@@H](NC(=O)C(F)(F)c5ccccc5)C(C)(C)C)n4)cc3)cc2)c[nH]1 [Compound S-282] | >100
16 | CC(C)(C(=O)N[C@H](c1nc(-c2ccc(-c3ccc(-c4c[nH]c([C@@H](NC(=O)C(C)(C)C(=O)N5CC(O)C5)C(C)(C)C)n4)cc3)cc2)c[nH]1)C(C)(C)C)C(=O)N1CC(O)C1 [Compound W-144] | >10
17 | COCCOC(=O)N1C[C@H](F)C[C@H]1C(=O)N[C@H](c1nc(-c2ccc(-c3ccc(-c4c[nH]c([C@@H](NC(=O)[C@@H]5C[C@@H](F)CN5C(=O)OCCOC)C(C)(C)C)n4)cc3)cc2)c[nH]1)C(C)(C)C [Compound W-110] | >100
18 | CCCC(C)(C)C(=O)N[C@H](c1nc(-c2ccc(-c3ccc(-c4c[nH]c([C@@H](NC(=O)C(C)(C)CCC)C(C)(C)C)n4)cc3)cc2)c[nH]1)C(C)(C)C [Compound S-281] | >100
19 | CC(C)CC(=O)N[C@@H](Cc1cccc2ccccc12)c1nc(-c2ccc(-c3ccc(-c4c[nH]c([C@H](Cc5cccc6ccccc56)NC(=O)CC(C)C)n4)cc3)cc2)c[nH]1 [Compound P-7] | <10
20 | CC(C)(C)[C@H](NC(=O)[C@@]1(C)CC(F)(F)CCO1)c1nc(-c2ccc(-c3ccc(-c4c[nH]c([C@@H](NC(=O)[C@@]5(C)CC(F)(F)CCO5)C(C)(C)C)n4)cc3)cc2)c[nH]1 [Compound Y-75] | >100

Row | SMILES | Fold-Synergistic 1a (Q30E) [fold]
21 | C[C@@H]1CN(C(C)(C)C(=O)N[C@H](c2nc(-c3ccc(-c4ccc(-c5c[nH]c([C@@H](NC(=O)C(C)(C)N6C[C@@H](C)O[C@@H](C)C6)C(C)(C)C)n5)cc4)cc3)c[nH]2)C(C)(C)C)C[C@H](C)O1 [Compound W-160] | >10
22 | CC(C)(C)OC(=O)N[C@]1(C(=O)N[C@H](c2nc(-c3ccc(-c4ccc(-c5c[nH]c([C@@H](NC(=O)[C@@]6(NC(=O)OC(C)(C)C)C[C@@H]6c6ccccc6)C(C)(C)C)n5)cc4)cc3)c[nH]2)C(C)(C)C)C[C@@H]1c1ccccc1 [Compound W-2] | >100
23 | C[C@H]1CCN(C(=O)C2CCC(F)(F)CC2)[C@@H]1c1nc(-c2ccc(-c3ccc(-c4c[nH]c([C@@H]5[C@@H](C)CCN5C(=O)C5CCC(F)(F)CC5)n4)cc3)cc2)c[nH]1 [Compound W-188] | >10
24 | CC(C)(C)[C@H](NC(=O)C(=O)N1CCC(F)CC1)c1nc(-c2ccc(-c3ccc(-c4c[nH]c([C@@H](NC(=O)C(=O)N5CCC(F)CC5)C(C)(C)C)n4)cc3)cc2)c[nH]1 [Compound W-26] | >100
25 | COC(=O)N[C@@H]1CCCCC1C(=O)N[C@H](c1nc(-c2ccc(-c3ccc(-c4c[nH]c([C@@H](NC(=O)C5CCCC[C@H]5NC(=O)OC)C(C)(C)C)n4)cc3)cc2)c[nH]1)C(C)(C)C (stereo partly shown) [Compound S-275] | >100
26 | CC(C)(C)C(=O)N[C@H](c1nc(-c2ccc(-c3ccc(-c4c[nH]c([C@@H](NC(=O)C(C)(C)C)C(C)(C)C)n4)c(F)c3)cc2)c[nH]1)C(C)(C)C [Compound N-93] | >100
27 | CC(C)(C)[C@H](NC(=O)C(=O)c1ccco1)c1nc(-c2ccc(-c3ccc(-c4c[nH]c([C@@H](NC(=O)C(=O)c5ccco5)C(C)(C)C)n4)cc3)cc2)c[nH]1 [Compound W-20] | >100
28 | O=C(N[C@H](c1nc(-c2ccc(-c3ccc(-c4c[nH]c([C@@H](NC(=O)C5CCC(F)(F)CC5)C5CC5)n4)cc3)cc2)c[nH]1)C1CC1)C1CCC(F)(F)CC1 [Compound L-90] | >100
29 | COC(=O)N[C@@H](C(=O)N[C@H](c1nc(-c2ccc(-c3ccc(-c4c[nH]c([C@@H](NC(=O)[C@H](NC(=O)OC)C(C)C)C5CCCC5)n4)cc3)cc2)c[nH]1)C1CCCC1)C(C)C [Compound N-43] | >10
30 | CC(=O)N1CCC[C@H]1c1ncc(-c2ccc(-c3ccc(-c4cnc([C@@H]5CCCN5C(C)=O)[nH]4)cc3)cc2)[nH]1 [Compound S-113] | <10
31 | CC(C)CC(=O)N[C@@H](Cc1ccc2ccccc2c1)c1nc(-c2ccc(-c3ccc(-c4c[nH]c([C@H](Cc5ccc6ccccc6c5)NC(=O)CC(C)C)n4)cc3)cc2)c[nH]1 [Compound P-8] | <10
32 | CC(C)N(C(=O)OC1(C(=O)N[C@H](c2nc(-c3ccc(-c4ccc(-c5c[nH]c([C@@H](NC(=O)C6(OC(=O)N(C(C)C)C(C)C)CC6)C6(C)CC6)n5)cc4)cc3)c[nH]2)C2(C)CC2)CC1)C(C)C [Compound L-39] | >100
33 | CC(C)(C)[C@H](NC(=O)C1CCOC1)c1nc(-c2ccc(-c3ccc(-c4c[nH]c([C@@H](NC(=O)C5CCOC5)C(C)(C)C)n4)cc3)cc2)c[nH]1 (stereo partly shown) [Compound W-129] | >10
34 | CC(C)(C)[C@H](NC(=O)[C@H]1CC[C@@H](O)CC1)c1nc(-c2ccc(-c3ccc(-c4c[nH]c([C@@H](NC(=O)[C@H]5CC[C@@H](O)CC5)C(C)(C)C)n4)cc3)cc2)c[nH]1 [Compound W-134] | >100
35 | CCOC(=O)C(C)(C)C(=O)N[C@H](c1nc(-c2ccc(-c3ccc(-c4c[nH]c([C@@H](NC(=O)C(C)(C)C(=O)OCC)C(C)(C)C)n4)cc3)cc2)c[nH]1)C(C)(C)C [Compound W-126] | >100
36 | CC(C)(CO)C(=O)N[C@H](c1nc(-c2ccc(-c3ccc(-c4c[nH]c([C@@H](NC(=O)C(C)(C)CO)C(C)(C)C)n4)cc3)cc2)c[nH]1)C(C)(C)C [Compound L-56] | >100
37 | Cc1cc(-c2ccc(-c3c[nH]c([C@@H](NC(=O)c4c(F)cccc4Cl)C(C)C)n3)cc2)ccc1-c1c[nH]c([C@@H](NC(=O)c2c(F)cccc2Cl)C(C)C)n1 [Compound N-81] | >100
38 | CC(C)(C)[C@H](NC(=O)C(C)(C)C1(O)CCCCC1)c1nc(-c2ccc(-c3ccc(-c4c[nH]c([C@@H](NC(=O)C(C)(C)C5(O)CCCCC5)C(C)(C)C)n4)cc3)cc2)c[nH]1 [Compound P-160] | >100
39 | CC1(C(=O)N[C@H](c2nc(-c3ccc(-c4ccc(-c5c[nH]c([C@@H](NC(=O)C6(C)CCCO6)C(C)(C)C)n5)cc4)cc3)c[nH]2)C(C)(C)C)CCCO1 (stereo partly drawn) [Compound L-69] | >100
40 | CC(C)(C)[C@H](NC(=O)C1(OC(=O)N2CCCCC2)CC1)c1nc(-c2ccc(-c3ccc(-c4c[nH]c([C@@H](NC(=O)C5(OC(=O)N6CCCCC6)CC5)C(C)(C)C)n4)cc3)cc2)c[nH]1 [Compound L-28] | >100
